SMILES strings stand for the structures. Some results are limits rather than exact numbers.

In general, IC50 refers to the concentration that inhibits the measured activity by half. A high value points to weaker potency in that assay.

One assay addresses T1, Histone deacetylase 8 (Homo sapiens, UniProt Q9BY41).
T1 sequence (Q9BY41 whole entry): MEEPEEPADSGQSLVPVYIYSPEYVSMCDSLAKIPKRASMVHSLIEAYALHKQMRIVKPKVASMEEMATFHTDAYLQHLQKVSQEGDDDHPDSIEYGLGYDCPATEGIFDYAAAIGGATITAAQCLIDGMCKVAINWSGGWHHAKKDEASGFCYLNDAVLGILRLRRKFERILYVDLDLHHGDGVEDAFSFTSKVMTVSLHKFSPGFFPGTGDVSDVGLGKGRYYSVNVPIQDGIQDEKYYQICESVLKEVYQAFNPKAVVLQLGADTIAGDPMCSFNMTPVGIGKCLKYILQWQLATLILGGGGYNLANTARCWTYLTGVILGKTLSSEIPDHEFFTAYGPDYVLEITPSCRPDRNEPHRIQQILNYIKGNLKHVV

For a further assay, the system named is HL-60. Briefly: Antiproliferative activity against human HL60 cells after 48 hrs by MTT assay. The assay is classed as functional, cell-based. Conditions: HL-60, 48 h. (In general: Tetrazolium assays rely on reduction of a dye to a coloured formazan, in cell work by metabolically active cells.)
A further assay deals with HCT-116. The assay can be described thus: Antiproliferative activity against human HCT116 cells after 48 hrs by MTT assay. The assay is classed as functional, cell-based. Conditions: HCT-116, 48 h.
The next assay concerns SK-OV-3. The assay can be described thus: Antiproliferative activity against human SKOV3 cells after 48 hrs by MTT assay. Type of assay: functional, cell-based. Conditions: SK-OV-3, 48 h.

Description for Histone deacetylase 8: Inhibition of HDAC8 expressed in Escherichia coli assessed as Boc-Lys (acetyl)-AMC substrate hydrolysis by fluorimetric assay

`O=C(COc1ccc2c(c1)CN[C@H](C(=O)Nc1ccc(F)c(Cl)c1)C2)NO` came in with an IC50 against Histone deacetylase 8 of 3.34 µM.

`Cc1ccc(NC(=O)[C@@H]2Cc3ccc(OCC(=O)NO)cc3CN2C(=O)OC(C)(C)C)cc1`: the IC50 at Histone deacetylase 8 is 1.65 µM.

Take `O=C(COc1ccc2c(c1)CN[C@H](C(=O)Nc1cccc(Cl)c1)C2)NO`: the IC50 at Histone deacetylase 8 was determined as 3.2 µM.

Turning to `CC(C)(C)OC(=O)N1Cc2cc(OCC(=O)NO)ccc2C[C@H]1C(=O)Nc1ccc(F)cc1`, it took 2.56 µM to reach half-maximal inhibition against Histone deacetylase 8 (IC50).

In the case of `CC(C)(C)NC(=O)[C@@H]1Cc2ccc(OCC(=O)NO)cc2CN1C(=O)OC(C)(C)C`, on Histone deacetylase 8, the IC50 came out at 4.58 µM.

In turn, `Cc1cccc(NC(=O)[C@@H]2Cc3ccc(OCC(=O)NO)cc3CN2)c1` returned an IC50 against Histone deacetylase 8 of 3.62 µM.

`CC(C)(C)OC(=O)N1Cc2cc(OCC(=O)NO)ccc2C[C@H]1C(=O)Nc1ccc(-c2ccccc2)cc1` registered an IC50 against Histone deacetylase 8 of 1.98 µM.

In the case of `O=C(COc1ccc2c(c1)CN[C@H](C(=O)NCCc1ccccc1)C2)NO`, on Histone deacetylase 8, the IC50 is 4.07 µM.

Regarding `CCCCCNC(=O)[C@@H]1Cc2ccc(OCC(=O)NO)cc2CN1C(=O)OC(C)(C)C`, the IC50 against Histone deacetylase 8 came out at 3.02 µM.

In the case of `Cc1cccc(NC(=O)[C@@H]2Cc3ccc(OCC(=O)NO)cc3CN2C(=O)OC(C)(C)C)c1`, the concentration for half-maximal inhibition (IC50) at Histone deacetylase 8 amounted to 1.77 µM.

On to `O=C(COc1ccc2c(c1)CN(C(=O)OCc1ccccc1)[C@H](C(=O)NCCc1ccccc1)C2)NO`, for which the IC50 in the assay on HL-60 was > 2000 µM; against Histone deacetylase 8 it was 0.58 µM; with HCT-116, 370 µM; in the assay with SK-OV-3 it was > 2000 µM.

On to `CC(C)(C)OC(=O)N1Cc2cc(OCC(=O)NO)ccc2C[C@H]1C(=O)Nc1ccccc1`, for which the IC50 against Histone deacetylase 8 was determined as 1.29 µM.

As for `O=C(COc1ccc2c(c1)CN[C@H](C(=O)Nc1cccc3ccccc13)C2)NO`, the IC50 in the assay on HL-60 is 980 µM; at Histone deacetylase 8 it was 1.06 µM; in the assay on HCT-116 it was 170 µM; with SK-OV-3, 750 µM.

On Histone deacetylase 8, `CC(C)(C)NC(=O)[C@@H]1Cc2ccc(OCC(=O)NO)cc2CN1` registered an IC50 of 12.2 µM.

With `Cc1ccc(NC(=O)[C@@H]2Cc3ccc(OCC(=O)NO)cc3CN2)cc1`, at Histone deacetylase 8, inhibition was half-maximal at 3.82 µM (IC50).

In turn, `Cc1ccc(NC(=O)[C@@H]2Cc3ccc(OCC(=O)NO)cc3CN2C(=O)OC(C)(C)C)c(C)c1` registered an IC50 on Histone deacetylase 8 of 3.78 µM.

On to `O=C(COc1ccc2c(c1)CN1C(=O)N(c3ccc(-c4ccccc4)cc3)C(=O)[C@@H]1C2)NO`, for which the IC50 against Histone deacetylase 8 is > 50 µM.

The compound `O=C(COc1ccc2c(c1)CN[C@H](C(=O)Nc1ccc(F)cc1)C2)NO` yielded an IC50 against Histone deacetylase 8 of 3.23 µM.

Take `O=C(COc1ccc2c(c1)CN[C@H](C(=O)NCc1ccccc1)C2)NO`: the IC50 against Histone deacetylase 8 stood at 5.1 µM.

`Cc1ccccc1NC(=O)[C@@H]1Cc2ccc(OCC(=O)NO)cc2CN1C(=O)OC(C)(C)C`: it took 4 µM to reach half-maximal inhibition against Histone deacetylase 8 (IC50).

In the case of `CC(C)(C)OC(=O)N1Cc2cc(OCC(=O)NO)ccc2C[C@H]1C(=O)Nc1ccc(F)c(Cl)c1`, the concentration for half-maximal inhibition (IC50) against Histone deacetylase 8 is 1.55 µM.

The compound `O=C(COc1ccc2c(c1)CN[C@H](C(=O)Nc1ccc(-c3ccccc3)cc1)C2)NO` had an IC50 on Histone deacetylase 8 of 2.21 µM.

In turn, `CCCCCNC(=O)[C@@H]1Cc2ccc(OCC(=O)NO)cc2CN1` displayed an IC50 on Histone deacetylase 8 of 3.54 µM.

With `CC(C)(C)OC(=O)N1Cc2cc(OCC(=O)NO)ccc2C[C@H]1C(=O)Nc1cccc(Cl)c1`, the IC50 was found to be 960 µM with HL-60, 1.17 µM against Histone deacetylase 8, 490 µM in the assay with HCT-116 and 680 µM in the assay with SK-OV-3.

On Histone deacetylase 8, `CC(C)(C)OC(=O)N1Cc2cc(OCC(=O)NO)ccc2C[C@H]1C(=O)Nc1cccc2ccccc12` showed an IC50 of 4.25 µM.

As for `CCCCCCNC(=O)[C@@H]1Cc2ccc(OCC(=O)NO)cc2CN1C(=O)OC(C)(C)C`, on Histone deacetylase 8, the IC50 worked out at 4.42 µM.

Take `O=C(COc1ccc2c(c1)CN1C(=O)N(c3ccccc3)C(=O)[C@@H]1C2)NO`: at Histone deacetylase 8, the IC50 is > 50 µM.

Consider `COc1ccc(NC(=O)[C@@H]2Cc3ccc(OCC(=O)NO)cc3CN2C(=O)OC(C)(C)C)cc1`, for which the IC50 was > 2120 µM with HL-60, 1 µM against Histone deacetylase 8, 48 µM in the assay on HCT-116 and 420 µM in the assay on SK-OV-3.

Take `CCCCCCNC(=O)[C@@H]1Cc2ccc(OCC(=O)NO)cc2CN1`: the midpoint of inhibition at Histone deacetylase 8, the IC50, lay at 5.77 µM.

The compound `O=C(COc1ccc2c(c1)CN[C@H](C(=O)Nc1ccccc1)C2)NO` showed an IC50 on Histone deacetylase 8 of 8.21 µM.

Regarding `CC(C)(C)OC(=O)N1Cc2cc(OCC(=O)NO)ccc2C[C@H]1C(=O)NCCc1ccccc1`, on Histone deacetylase 8, half-maximal inhibition (IC50) was put at 2.67 µM.

Take `COc1ccc(NC(=O)[C@@H]2Cc3ccc(OCC(=O)NO)cc3CN2)cc1`: inhibition against Histone deacetylase 8 was half-maximal at 5.57 µM (IC50).

With `Cc1ccc(NC(=O)[C@@H]2Cc3ccc(OCC(=O)NO)cc3CN2)c(C)c1`, the midpoint of inhibition against Histone deacetylase 8, the IC50, lay at 3.39 µM.

At Histone deacetylase 8, `CC(C)(C)OC(=O)N1Cc2cc(OCC(=O)NO)ccc2C[C@H]1C(=O)NCc1ccccc1` had an IC50 of 3.41 µM.

On Histone deacetylase 8, `Cc1ccccc1NC(=O)[C@@H]1Cc2ccc(OCC(=O)NO)cc2CN1` returned an IC50 of 4.13 µM.
